# Laboratory results as given in patent publication US20110190244A1, “METHOD OF TREATMENT OF EGFR INHIBITOR TOXICITY” (priority 2010, published 2011).
# Where two headings read alike, the source gives them in different places.
# How the values were obtained:
# [1] = mice, 2000 mg/kg oral; cited from earlier work
# [2] = cited from earlier work; for no observed adverse effect level (NOAEL): rats, repeated oral dose
# [3] = test system: carcinogen-induced mammary tumours; conditions: ovariectomized rats; cited from earlier work
# [4] = dogs, cited from earlier work
# [5] = Repeated dose 1- and 6-month oral toxicity, rats; type: in vivo; conditions: versus 80 mg oral dose in patients
# Description: However, there was a slightly lower exposure over time in rats compared to dogs. […] In vitro and in vivo metabolic studies have shown a large number of metabolites with qualitatively similar in vitro profiles in rats, dogs and man. […] Based on the pharmacokinetic parameters of BN83495, it is not expected to have any significant interaction with EGFR inhibitor/s which are metabolised predominantly by CYP3A4 (Roche products—Tarceva Product Information)
# The no observed adverse effect level (NOAEL) was 200 mg/kg/day for males and 50 mg/kg/day for females.
# STS [6] = conditions: cited from earlier work
# [7] = rats, 2000 mg/kg oral; cited from earlier work
# hERG current = molecular target: T1, hERG current (Homo sapiens, UniProt Q12809); conditions: transfected HEK-293 cells, in vitro; read-out: hERG current inhibition IC50; cited from earlier work
# T1 construct: expressed in transfected cells; host or cells: HEK-293
# [8] = female patients, 80 mg oral dose; cited from earlier work
# [9] = cited from earlier work
# [10] = rats, single oral doses up to 1200 mg/kg; cited from earlier work
# [11] = cited from earlier work; remark: listed apart in the source
# [12] = Oral administration to radiotelemetry instrumented dogs for seven days; conditions: highest tested dose, versus 80 mg oral dose in patients
# STS [13] = molecular target: T2, STS (Homo sapiens, UniProt P08842); conditions: 40 mg dose; cited from earlier work
# T2 construct: from tissue; host or cells: peripheral blood lymphocytes / mononuclear cells and breast tumour tissue of patients
# T2 sequence (P08842 22-583): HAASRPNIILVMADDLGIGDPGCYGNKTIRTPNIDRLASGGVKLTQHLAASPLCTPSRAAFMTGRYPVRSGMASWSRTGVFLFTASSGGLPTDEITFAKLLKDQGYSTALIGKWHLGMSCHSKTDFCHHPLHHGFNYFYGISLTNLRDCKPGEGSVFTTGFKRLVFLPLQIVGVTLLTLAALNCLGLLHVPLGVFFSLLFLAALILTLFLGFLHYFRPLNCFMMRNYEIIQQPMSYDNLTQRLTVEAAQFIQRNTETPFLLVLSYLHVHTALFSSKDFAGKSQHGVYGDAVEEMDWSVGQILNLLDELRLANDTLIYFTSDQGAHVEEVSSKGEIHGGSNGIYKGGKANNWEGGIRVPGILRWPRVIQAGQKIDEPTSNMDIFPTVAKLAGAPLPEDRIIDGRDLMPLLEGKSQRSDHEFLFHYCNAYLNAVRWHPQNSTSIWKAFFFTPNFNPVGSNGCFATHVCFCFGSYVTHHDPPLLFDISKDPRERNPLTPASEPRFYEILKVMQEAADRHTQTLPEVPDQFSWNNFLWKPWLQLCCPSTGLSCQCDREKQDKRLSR
# STS [14] = molecular target: T2, STS; conditions: cited from earlier work
# [15] = cited from earlier work; remark: listed apart in the source
# isolated Purkinje fibres = conditions: only at a high concentration of 50 μM; cited from earlier work
# [16] = dogs, 50, 250 and 1000 mg/kg/day; cited from earlier work
# CYP2C19 = CYP2C19 (Homo sapiens, UniProt P33261); conditions: cited from earlier work
# [17] = cited from earlier work; remark: listed apart in the source
# [18] = rats, 25, 50, 100 and 200 mg/kg/day
# T1 sequence (Q12809 whole entry): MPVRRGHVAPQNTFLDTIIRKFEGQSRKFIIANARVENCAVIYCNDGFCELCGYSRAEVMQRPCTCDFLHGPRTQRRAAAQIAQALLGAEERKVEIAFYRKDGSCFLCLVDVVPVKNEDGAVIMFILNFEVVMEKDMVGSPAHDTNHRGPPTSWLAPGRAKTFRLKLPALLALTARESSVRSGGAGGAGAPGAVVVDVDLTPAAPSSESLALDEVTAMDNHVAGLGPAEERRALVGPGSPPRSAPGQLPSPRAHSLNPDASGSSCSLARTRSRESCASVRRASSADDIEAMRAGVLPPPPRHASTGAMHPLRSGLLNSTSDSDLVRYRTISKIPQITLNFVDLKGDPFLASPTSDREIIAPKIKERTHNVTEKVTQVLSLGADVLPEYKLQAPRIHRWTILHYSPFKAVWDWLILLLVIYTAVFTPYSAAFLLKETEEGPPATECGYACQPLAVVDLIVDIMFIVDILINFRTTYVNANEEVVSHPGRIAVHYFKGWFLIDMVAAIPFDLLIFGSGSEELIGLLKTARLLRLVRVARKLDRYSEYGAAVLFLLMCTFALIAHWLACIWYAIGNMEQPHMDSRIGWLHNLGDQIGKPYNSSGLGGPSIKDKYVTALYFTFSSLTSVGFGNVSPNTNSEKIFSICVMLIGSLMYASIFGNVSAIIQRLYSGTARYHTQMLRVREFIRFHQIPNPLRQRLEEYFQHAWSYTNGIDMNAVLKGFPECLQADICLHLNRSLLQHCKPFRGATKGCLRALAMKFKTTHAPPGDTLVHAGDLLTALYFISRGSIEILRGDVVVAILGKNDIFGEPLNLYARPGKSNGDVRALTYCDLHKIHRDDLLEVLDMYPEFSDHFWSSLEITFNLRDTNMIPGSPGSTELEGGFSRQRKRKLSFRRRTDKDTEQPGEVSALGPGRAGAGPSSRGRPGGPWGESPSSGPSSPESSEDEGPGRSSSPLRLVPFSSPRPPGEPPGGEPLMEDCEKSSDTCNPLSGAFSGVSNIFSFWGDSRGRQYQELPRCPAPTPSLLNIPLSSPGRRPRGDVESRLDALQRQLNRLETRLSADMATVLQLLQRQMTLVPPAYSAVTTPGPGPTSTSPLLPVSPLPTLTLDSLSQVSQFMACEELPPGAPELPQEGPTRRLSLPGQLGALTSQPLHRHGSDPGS
# Chain of CYP2C19 (P33261 whole entry): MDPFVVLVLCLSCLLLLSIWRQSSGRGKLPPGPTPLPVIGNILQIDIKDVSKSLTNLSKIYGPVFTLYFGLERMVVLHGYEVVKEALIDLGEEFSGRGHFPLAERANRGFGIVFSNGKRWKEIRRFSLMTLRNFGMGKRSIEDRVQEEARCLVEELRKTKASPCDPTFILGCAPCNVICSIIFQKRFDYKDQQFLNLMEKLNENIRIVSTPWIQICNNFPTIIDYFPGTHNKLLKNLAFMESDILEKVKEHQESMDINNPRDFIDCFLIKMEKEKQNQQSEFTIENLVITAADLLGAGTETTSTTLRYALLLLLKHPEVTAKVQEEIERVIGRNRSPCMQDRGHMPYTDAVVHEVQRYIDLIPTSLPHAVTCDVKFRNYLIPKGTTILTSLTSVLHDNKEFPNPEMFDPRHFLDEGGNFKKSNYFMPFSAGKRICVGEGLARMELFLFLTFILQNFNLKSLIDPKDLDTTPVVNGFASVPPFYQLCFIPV
structure (smiles),measurement,setting,value
"NS(=O)(=O)Oc1ccc2c3c(c(=O)oc2c1)CCCCC3 [BN83495, Sulphamic acid, 6,7,8,9,10,11-hexahydro-6-oxobenzo[b]cyclohepta[d]pyran-3-yl ester]",adverse effects in single dose oral toxicity study,[1],did not show any adverse effects
same,plasma exposure versus dose,"[2]; 6-month repeat dose rat toxicology studies, Day 1",proportional to dose
same,"bone findings (femur, tibia and sternum)",[2]; [18],partially reversible osteoid deposition at all treated dose-levels
same,liver findings,[2]; [18],reversible hepatocellular vacuolation in all treated groups
same,no observed adverse effect level (NOAEL),[2]; females,50 mg/kg/day
same,no observed adverse effect level (NOAEL),[2]; males,200 mg/kg/day
same,growth of mammary tumours stimulated by estrone sulphate (E1S),[3],blocked the ability of estrone sulphate (E1S) to stimulate the growth
same,haemodynamic effects,[4]; at both doses (150 and 400 mg/kg/day),transient hypotension and reflex tachycardia
same,ECG changes,[4]; oral 150 and 400 mg/kg/day for seven consecutive days,did not induce any clinically relevant ECG changes
same,exposure (AUC) in rats relative to mean AUC in female patients,[5]; female rats,14 fold
same,exposure (AUC) in rats relative to mean AUC in female patients,[5]; male rats,31 fold
same,STS inhibition in rodents,STS [6]; in vivo,potent STS inhibitor
same,adverse effects in single dose oral toxicity study,[7],did not show any adverse effects
same,IC50,hERG current,13 µM
same,mean steady state plasma AUC,[8],1293 ng·h/mL
same,mean steady state plasma Cmax,[8],159 ng/mL
same,absorption,[9]; non-clinical studies,rapid absorption
same,elimination of radioactivity,"[9]; preclinical models, by biotransformation",mainly via urine
same,distribution,"[9]; rats, primarily in blood and related organs, intestine, liver and kidneys",widely distributed
same,erythrocyte uptake,[9]; uptake and retention related to carbonic anhydrase II enzyme,sequestered in erythrocytes
same,effect on behaviour or respiration,[10],no effect on behaviour or respiration
same,protein binding,[11],highly protein bound
same,mean maximum plasma exposure relative to mean steady state plasma AUC in female patients,[12],62 fold
same,mean maximum plasma exposure relative to mean steady state plasma Cmax in female patients,[12],103 fold
same,inhibition of STS in peripheral blood mononuclear cells,STS [13],95%
same,patients with more than 90% STS inhibition in tumour tissue,STS [14]; 5 mg dose,3 out of 4
same,patients with more than 90% STS inhibition in tumour tissue,"STS [14]; 20 mg dose, patients in whom it was measured",all 3
same,inhibition of STS activity in peripheral blood lymphocytes,"STS [14]; 24 hours after dosing on Day 5, both dose groups (5 mg, 20 mg daily)",more than 90%
same,tolerability,[15]; doses 1 mg up to 80 mg,well tolerated up to a dose of 40 mg
same,"drug-related adverse events, Grade 3",[15]; observed in 2 patients,4
same,effect on ECG parameters,[15]; preliminary review of ECG data,does not have an effect on ECG parameters
same,patients with stable disease for more than 6 months,[15]; three higher dose groups,Four
same,dose limiting toxicity,[15]; up to a dose of 40 mg,no dose limiting toxicity was observed
same,action potential duration (APD),isolated Purkinje fibres,increased action potential duration
same,adrenal findings,[16],adrenal cortical cell hypertrophy was seen in all treated animal groups
same,kidney findings,[16],flattened tubular epithelium in one high dose animal/sex
same,liver findings,[16],hepatocellular vacuolation in both sexes at 50 mg/kg/day and in females at 250 and 1000 mg/kg/day
same,potential clinically significant induction/inhibition of a CYP450 isoenzyme,CYP2C19,inhibition of CYP2C19
same,best response: stable disease,"[17]; 14 patients, 5 mg or 20 mg",4 patients
same,"serum concentrations of oestradiol, androstenediol and testosterone",[17]; Day 5 assessment,significant decreases
same,tolerability,"[17]; both tested doses (5 mg, 20 mg)",well tolerated
same,"dose proportionality of Cmax, AUC and mean plasma clearance","[17]; patients, 5 mg and 20 mg",non dose proportional pharmacokinetics
same,serum DHEA concentration,"[17]; patients, 5 mg or 20 mg",significant decreases
CCCN1C(=O)CC2C3CCc4cc(OS(N)(=O)=O)ccc4C3CC[C@]2(C)C1=O (some centres unmarked) [STX213],STS inhibition in rodents,STS [6]; rodents,effectively inhibit STS activity
